A short description of series [1]: Partition coefficient, logP of compound by RP-HPLC analysis. It is filed as physicochemical. Particulars: octanol/water.
The species entered for series [2] is Rattus norvegicus. Kind of series: Modulation of FGFR in Wistar rat cerebrocortical/hippocampal neuronal cells assessed as protection against glutamate-induced neuronal cell death by measuring cell survival at 10 uM pretreated for 24 hrs followed by glutamate-stimulation by CCK8 assay relative to SUN13837. On the technique in general: Formazan colour is commonly taken as a measure of viable cells.

Another series addresses CYP3A4 (Homo sapiens, UniProt P08684). Kind of series: (§1) Mechanism based inactivation of CYP3A4 in human liver microsome assessed as remaining activity at 100 uM preincubated for 30 mins followed testosterone addition and measured after 10 mins by LC-MS/MS analysis relative to control. The class given is ADME, microsomes. Particulars: human liver microsomes, probe testosterone, read-out: Activity.

For a further series, the target named is Cytochrome P450 3A4 (Homo sapiens, UniProt P08684). The description is as §1. Particulars: microsomes, 10 min, 100 µM. The class given is ADME, microsomes.
Cytochrome P450 3A4, sequence (P08684 whole entry): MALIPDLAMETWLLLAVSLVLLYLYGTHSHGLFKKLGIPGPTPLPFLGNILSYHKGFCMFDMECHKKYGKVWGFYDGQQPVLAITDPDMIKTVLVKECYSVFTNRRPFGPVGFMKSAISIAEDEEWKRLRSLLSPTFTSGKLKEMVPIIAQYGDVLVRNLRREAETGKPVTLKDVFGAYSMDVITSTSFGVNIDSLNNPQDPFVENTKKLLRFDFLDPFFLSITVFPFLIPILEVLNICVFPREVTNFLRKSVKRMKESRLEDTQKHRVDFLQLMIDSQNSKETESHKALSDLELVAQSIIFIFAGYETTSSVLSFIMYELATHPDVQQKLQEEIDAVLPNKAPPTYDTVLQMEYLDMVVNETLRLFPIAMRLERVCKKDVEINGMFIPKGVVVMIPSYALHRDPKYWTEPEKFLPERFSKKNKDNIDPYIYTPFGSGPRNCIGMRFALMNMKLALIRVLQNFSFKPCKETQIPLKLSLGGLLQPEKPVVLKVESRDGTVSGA
Series [3] in a line: AUC in Crl:CD(SD) rat at 5 mg/kg, po by LC-MS/MS analysis. It is filed as ADME, organism-based. Particulars: in vivo.
The nature of series [4]: Elimination half life in Crl:CD(SD) rat at 1 mg/kg, iv by LC-MS/MS analysis. The class given is ADME, organism-based. The following applies: in vivo, read-out: beta t1/2 (converted).
The nature of series [5]: Oral bioavailability in Crl:CD(SD) rat at 5 mg/kg by LC-MS/MS analysis. It is filed as ADME, organism-based. The following applies: in vivo.
Series [6] can be described thus: Volume of distribution in Crl:CD(SD) rat at 1 mg/kg, iv by LC-MS/MS analysis. The class given is ADME, organism-based. The following applies: in vivo.
Series [7] in a line: Ratio of drug level in Crl:CD(SD) rat brain to plasma at 1 mg/kg, iv measured after 1 hr by LC-MS/MS analysis. The class given is ADME, organism-based.
The nature of series [8]: Clearance in Crl:CD(SD) rat at 1 mg/kg, iv by LC-MS/MS analysis. It is filed as ADME, organism-based. The following applies: in vivo.
The nature of series [9]: Drug metabolism in human liver microsomes assessed as carboxylesterase-mediated hydrolytic rate for diamine compound formation at 100 uM incubated for 60 mins in absence of NADPH measured per mg protein by LC-MS/MS analysis. It is filed as ADME. The following applies: 1 h. (In general: Liver microsomes are vesicles of endoplasmic reticulum, rich in cytochrome P450 enzymes.)

Series [10] concerns Rattus norvegicus. Nature of the series: Neuroprotective activity against microsphere induced Crl:CD(SD) rat cerebral embolism model assessed as recovery of motor coordination by measuring latency time at 1 mg/kg, po administered daily for 10 days starting from day 1 post microsphere injection and measured at 2 weeks after microsphere injection by rotarod test (reference value: 189.1 secs). It is filed as functional. (In general: Falling from the rotarod earlier than controls is read as motor impairment.)

The nature of series [11]: AUC in Crl:CD(SD) rat at 10 mg/kg, po by LC-MS/MS analysis. The class given is ADME, organism-based. Particulars: in vivo.
Series [12] can be described thus: Oral bioavailability in Crl:CD(SD) rat at 10 mg/kg by LC-MS/MS analysis. Particulars: in vivo. It is filed as ADME, organism-based.

Each structure is given as a SMILES string.

CYP3A4, sequence (P08684 whole entry): as above

As to `Cc1nc(OCC(=O)N(C)C2CCN(C3COC3)CC2)nc(C)c1N`, in series [1] (read-out: logP), the logP (commonly the decadic logarithm of the partition coefficient of the neutral form, usually between octanol and water) came out at 1.1. Further, in the series filed under Rattus norvegicus [2], the Activity was found to be 78%. Also, at CYP3A4, the activity at 10 min, 100 µM was found to be 95%.

For the molecule `CN(C(=O)COc1ccc(Cl)nn1)C1CCN(CC(F)(F)F)CC1`, the logP in series [1] (read-out: logP) came out at 4. The Activity in the series listed under Rattus norvegicus [2] is 74%. Also, the activity at 10 min, 100 µM at CYP3A4 turned out to be 100%.

With `Cc1nc(OCC(=O)N2CC[C@@H]3[C@H]2CN3Cc2ccccc2)nc(C)c1N`, the logP in [1] (read-out: logP) turned out to be 2.8. In the series listed under Rattus norvegicus [2], the Activity stood at 87%. Moreover, the activity at 10 min, 100 µM on CYP3A4 was 40%.

With `Cc1nc(OCC(=O)N(C)C2CN(Cc3ccccc3)CC2F)nc(C)c1N` (centres undefined), the logP in series [1] (read-out: logP) stood at 3.7. On Cytochrome P450 3A4, the Activity is reported as 16%.

Turning to `Cc1nc(OCC(=O)N(C)C2CCN(CC(F)(F)F)CC2)nc(C)c1N`, the logP in series [1] (read-out: logP) amounted to 2.6. The Activity in the series filed under Rattus norvegicus [2] turned out to be 103%. In addition, on CYP3A4, the activity at 10 min, 100 µM came to 75%.

As to `Cc1nc(OCC(=O)N(C)[C@H]2CN(Cc3ccccc3)C[C@@H]2O)nc(C)c1N` (relative stereo), in series [1] (read-out: logP), the lipophilicity (logP) was 2.4. Further, the Activity in the series listed under Rattus norvegicus [2] is 93%. For the same molecule, the activity at 10 min, 100 µM on CYP3A4 came to 55%.

As for `Cc1nc(OCC(=O)N(C)C2CN(Cc3ccccc3)CC2F)nc(C)c1N.Cl` (centres undefined), the logP in series [1] is given as 4.8. Further, the Activity on Cytochrome P450 3A4 was determined as 96%.

Turning to `Cc1nc(OCC(=O)N(C)C2CCN(Cc3ccccc3)C2)nc(C)c1N` (centres undefined), the logP in series [1] (read-out: logP) worked out at 2.6. The Activity in the series listed under Rattus norvegicus [2] is 77%. On CYP3A4, the activity at 10 min, 100 µM amounted to 55%.

For `Cc1nc(OCC(=O)N(C)C2CCN(CC(F)F)CC2)nc(C)c1N`, in series [1] (read-out: logP), the logP was found to be 2. For the same molecule, the Activity in the series listed under Rattus norvegicus [2] came to 76%. For the same molecule, the activity at 10 min, 100 µM on CYP3A4 came out at 98%.

Turning to `Cc1nc(OCC(=O)N(C)C2CCN(Cc3ncccn3)CC2)nc(C)c1N`, the logP in series [1] (read-out: logP) stood at 1. For the same molecule, the Activity in the series listed under Rattus norvegicus [2] came to 96%. Moreover, the activity at 10 min, 100 µM at CYP3A4 came to 99%.

As to `Cc1nc(OCC(=O)N(C)C2CCN(CC3CC3(F)F)CC2)nc(C)c1N.Cl` (racemic), the AUC (in general, the area under the concentration-time curve, a measure of exposure) in series [3] is 1100 ng·h/mL. The half-life in series [4] is 2.7 h. In addition, in series [5], the bioavailability (as a rule, the share of a dose that reaches the circulation, judged against a reference dose that is usually intravenous) was 52%. Also, in series [6], the Vd (commonly a proportionality between amount in the body and measured concentration, not a real space) was 3.2 L/kg. The logP in series [1] (read-out: logP) is 2.2. In the series filed under Rattus norvegicus [2], the Activity came to 189%. Also, the Kp (as a rule, tissue or fluid exposure divided by exposure in the circulation) at 1 h in series [7] was found to be 0.12. The activity at 10 min, 100 µM on CYP3A4 is 86%. The clearance (as a rule, the volume of plasma or blood freed of the substance per unit of time) in [8] was 38.3 mL/min/kg.

Regarding `Cc1nc(OCC(=O)N(C)C2CCN(C3(C)COC3)CC2)nc(C)c1N`, the logP in [1] (read-out: logP) is 1.2. For the same molecule, the Activity in the series listed under Rattus norvegicus [2] amounted to 59%. Further, the activity at 10 min, 100 µM at CYP3A4 stood at 97%.

For `C[C@@H]1C[C@H]2[C@@H]3CCC4=CC(=O)C=C[C@]4(C)[C@@]3(F)[C@@H](O)C[C@]2(C)[C@@]1(O)C(=O)CO` [DEXAMETHASONE], the logP in [1] (read-out: logP) came to 2.82.

As for `CN(C(=O)COc1ccc(Cl)nn1)C1CCN(Cc2ncccc2F)CC1`, the logP in series [1] (read-out: logP) is 2.6. For the same molecule, the Activity in the series listed under Rattus norvegicus [2] was 44%. Further, the activity at 10 min, 100 µM at CYP3A4 turned out to be 100%.

As for `Cc1nc(OCC(=O)N(C)C2CCN(Cc3ncccc3F)CC2)nc(C)c1N`, the logP in [1] (read-out: logP) turned out to be 1.7. In addition, the Activity in the series listed under Rattus norvegicus [2] stood at 119%. Moreover, the activity at 10 min, 100 µM on CYP3A4 was 62%.

In the case of `CC(C)Cc1ccc(C(C)C(=O)O)cc1` (centres undefined) [IBUPROFEN], in [1] (read-out: logP), the logP amounted to 2.97.

`CN(C(=O)COc1ccc(Cl)nn1)C1CCN(CC2CC2(F)F)CC1` (centres undefined): in [3], the AUC stood at 1590 ng·h/mL. Further, the half-life in series [4] was 1.7 h. The Drug metabolism in series [9] worked out at 0 pmol/min. Also, the Time in the series on Rattus norvegicus [10] was found to be 315.5 s. Besides, the bioavailability in series [5] was 73%. The Vd in [6] is 4.2 L/kg. The logP in series [1] (read-out: logP) turned out to be 3.1. For the same molecule, the Activity in the series filed under Rattus norvegicus [2] was 105%. Moreover, in [7], the Kp at 1 h was 0.92. In addition, the activity at 10 min, 100 µM on CYP3A4 was determined as 99%. The clearance in [8] is 38.3 mL/min/kg.

Regarding `Cc1nc(OCC(=O)N(C)C2CCN(CC(C)(C)O)CC2)nc(C)c1N`, the lipophilicity (logP) in [1] (read-out: logP) came out at 0.7. Also, in the series listed under Rattus norvegicus [2], the Activity turned out to be 74%. In addition, the activity at 10 min, 100 µM at CYP3A4 stood at 97%.

In the case of `Cc1nc(OCC(=O)N(C)C2CCN(Cc3ccccc3)CC2)nc(C)c1N`, in series [4], the half-life was 1.4 h. Moreover, in series [9], the Drug metabolism was 7.2 pmol/min. In addition, the Time in the series on Rattus norvegicus [10] is 307 s. The Vd in series [6] was 2.3 L/kg. The same molecule came in with an AUC in series [11] of 3700 ng·h/mL. The molecule further returned a bioavailability in [12] of 70%. Further, the concentration ratio (Kp) at 1 h in series [7] was 0.15. Besides, the activity at 10 min, 100 µM at CYP3A4 was 60%. This molecule had a clearance in [8] of 41.7 mL/min/kg.

Consider `Cc1nc(OCC(=O)N(C)C2CN(Cc3ccccc3)C2)nc(C)c1N`, for which the logP in series [1] (read-out: logP) amounted to 2.1. In the series listed under Rattus norvegicus [2], the Activity came out at 127%. On CYP3A4, the activity at 10 min, 100 µM stood at 58%.

Values taken from ChEMBL document CHEMBL4622926, “Fibroblast growth factor receptor modulators employing diamines with reduced phospholipidosis-inducing potential” (Bioorg Med Chem, 2020).
